Results on six molecules are retold here after US20260276643A1, “METHODS FOR PREDICTING AND IMPROVING THERAPEUTIC EFFICACY OF CANCER TREATMENTS AND METHODS FOR CANCER PROGNOSIS” (Università degli studi di Verona, priority 2023, published 2026).

Like-named read-outs stand apart in the source and are kept apart here.

Assay [1] relates to CLDN18.2 expression in cancer cells. To be noted: WO2013/174510; Tureci 2019; cited from earlier work.
The subject of assay [2] is CLDN18 expression in DANG cells. The assay is described as follows: CLDN18 exogenous regulation in vitro: CLDN18 staining of treated DANG cells. It counts as cell-based, human.

On to `O=c1[nH]cc(F)c(=O)[nH]1` [5-fluorouracil, 5-fluoro-1H-pyrimidine-2,4-dione], for which, in assay [1], the “CLDN18.2 expression levels in cancer cells” value (shortened to “CLDN18.2 expression levels”) is given as “upregulate existing CLDN18.2 expression levels in cancer cells”.

`Nc1ccn([C@@H]2O[C@H](CO)[C@@H](O)C2(F)F)c(=O)n1` [Gemcitabine, 4-amino-1-(2-deoxy-2,2-difluoro-β-D-erythro-pentofuranosyl)pyrimidin-2(1H)-one]: the “CLDN18.2 expression levels” value in assay [1] is given as “upregulate existing CLDN18.2 expression levels in cancer cells”. In addition, in assay [2] (DANG cells, 48 hours treatment, FIG. 7), the “CLDN18 expression (mean fluorescence intensity, fold change on untreated)” value was “induced CLDN18 expression in DANG cells”.

`CCCCCCCCCCCCCC(=O)O[C@@H]1[C@@H](C)[C@@]2(O)[C@@H](C=C(CO)C[C@]3(O)C(=O)C(C)=C[C@@H]23)[C@@H]2C(C)(C)[C@]12OC(C)=O` [PMA, Phorbol 12-myristate 13-acetate]: in assay [2], the “CLDN18 expression (mean fluorescence intensity, fold change on untreated)” value was “induced CLDN18 expression in DANG cells” and the “CLDN18 expression (percentage of CLDN18+ cells)” value was “induced CLDN18 expression in DANG cells”.

Regarding `NC(=O)Nc1sc(-c2ccc(F)cc2)cc1C(N)=O` [TPCA-1], the “CLDN18 expression (percentage of CLDN18+ cells)” value in assay [2] is recorded as “induced CLDN18 expression in DANG cells”.

As to `O=C1[O][Pt]2([NH][C@@H]3CCCC[C@H]3[NH]2)[O]C1=O` [oxaliplatin, [(1R,2R)-cyclohexane-1,2-diamine](ethanedioato-O,O′)platinum(II)], the “CLDN18.2 expression levels” value in assay [1] is on record as “upregulate existing CLDN18.2 expression levels in cancer cells”.

Consider Verteporfin, for which the “CLDN18 expression (percentage of CLDN18+ cells)” value in assay [2] (DANG cells, extended experiment, FIG. 11) is “induced CLDN18 expression in DANG cells”.
